Assay in all cases: relative viability (nuclei count vs DMSO), 5 days (fraction); higher = more cells survive
Compound in test [1]: C[C@]1(O)C[C@@H](c2nc(-c3ccc4ccc(-c5ccccc5)nc4c3)c3c(N)nccn32)C1 [Linsitinib] + CC(=O)c1c(C)c2cnc(Nc3ccc(N4CCNCC4)cn3)nc2n(C2CCCC2)c1=O [Palbociclib] (partner 0.5 µM)
In short, it runs like this:
(§1)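 Five library-drug doses in √10 steps were combined with a fixed anchor-drug dose, or a single drug was given alone, by pin tool to lung cancer cell lines in 1536-well plates the day after seeding. Nuclei were stained and counted after 5 days. Relative viability is the nuclei count in treated wells over that in vehicle wells, taken as the median of duplicate plates.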

Compound in test [2]: C[C@]1(O)C[C@@H](c2nc(-c3ccc4ccc(-c5ccccc5)nc4c3)c3c(N)nccn32)C1 [Linsitinib] + CC1(C)CCC(c2ccc(Cl)cc2)=C(CN2CCN(c3ccc(C(=O)NS(=O)(=O)c4ccc(N[C@H](CCN5CCOCC5)CSc5ccccc5)c(S(=O)(=O)C(F)(F)F)c4)cc3)CC2)C1 [Navitoclax] (partner 0.5 µM)
In outline:
as §1

Compound in test [3]: C[C@]1(O)C[C@@H](c2nc(-c3ccc4ccc(-c5ccccc5)nc4c3)c3c(N)nccn32)C1 [Linsitinib] + COc1cccc2cc(-c3nc([C@H]4CC[C@H](C(=O)O)CC4)n4ncnc(N)c34)[nH]c12 [OSI-027] (partner 0.5 µM)
In short, it runs like this:
as §1

Compound in test [4]: Cc1ccc(C(=O)N(CCCN)[C@@H](c2nc3cc(Cl)ccc3c(=O)n2Cc2ccccc2)C(C)C)cc1 [Ispinesib] + C[C@]1(O)C[C@@H](c2nc(-c3ccc4ccc(-c5ccccc5)nc4c3)c3c(N)nccn32)C1 [Linsitinib] (partner 1 µM)
In outline: as §1

For UMC-11, the relative viability in test [1] (first compound 0.01 µM) is 0.303; in test [1] (first compound 0.03162 µM), 0.301; in test [1] (first compound 0.1 µM), 0.33; in test [1] (first compound 0.3162 µM) it was 0.322; in test [1] (first compound 1 µM), 0.332; in test [2] (first compound 0.01 µM), 0.317. The relative viability in test [2] (first compound 0.03162 µM) turned out to be 0.301; in test [2] (first compound 0.1 µM) it was 0.315; in test [2] (first compound 1 µM) it was 0.302; in test [3] (first compound 0.01 µM) it was 0.468; in test [3] (first compound 0.03162 µM), 0.433; in test [3] (first compound 0.1 µM), 0.552. In addition, the relative viability in test [3] (first compound 1 µM) was found to be 0.432; in test [4] (first compound 0.001 µM) it was 1.06; in test [4] (first compound 0.003162 µM), 1.05; in test [4] (first compound 0.01 µM), 1.05; in test [4] (first compound 0.03162 µM), 0.449; in test [4] (first compound 0.1 µM), 0.244.

Values taken from the supplement of paper PMC10307832.
